US5708007A, “2-(piperidin-4-yl, pyridin-4-yl and tetrahydropyridin-4-yl) benzofuran-7-ol and carbamate derivatives for treating memory dysfunction” (priority 1996, dated 1998)

Target: T1, Brain AChE (Rattus norvegicus, UniProt P37136)
T1 construct: corpora striata dissected free, weighed and homogenized in 19 volumes; from tissue; host or cells: corpora striata of male Wistar rats, crude homogenate in 0.05M phosphate buffer
T1 sequence (P37136 32-614): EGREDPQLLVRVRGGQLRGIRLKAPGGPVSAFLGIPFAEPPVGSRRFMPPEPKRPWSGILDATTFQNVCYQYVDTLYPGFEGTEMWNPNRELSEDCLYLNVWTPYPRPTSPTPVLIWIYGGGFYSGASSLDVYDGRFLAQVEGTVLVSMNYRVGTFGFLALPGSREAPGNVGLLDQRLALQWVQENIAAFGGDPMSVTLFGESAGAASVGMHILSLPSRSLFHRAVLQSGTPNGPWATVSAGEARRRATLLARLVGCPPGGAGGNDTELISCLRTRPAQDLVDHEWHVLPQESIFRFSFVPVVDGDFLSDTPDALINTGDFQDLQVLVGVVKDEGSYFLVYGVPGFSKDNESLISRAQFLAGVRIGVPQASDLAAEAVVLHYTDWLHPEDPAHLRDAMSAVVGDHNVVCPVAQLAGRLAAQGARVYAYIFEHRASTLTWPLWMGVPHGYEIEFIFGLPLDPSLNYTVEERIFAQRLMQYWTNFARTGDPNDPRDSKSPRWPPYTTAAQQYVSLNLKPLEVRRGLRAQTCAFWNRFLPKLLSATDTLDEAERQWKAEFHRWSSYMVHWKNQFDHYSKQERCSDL
Assay: biochemical
Design: species or system rat (male Wistar)
Settings: rat striatum homogenate; acetylthiocholine 5 mM final; pH 7.2; 10 min preincubation at 37° C.; log-probit analysis; read-out: Inhibitory Concentration (μM) Brain AChE
Text: Cholinesterases are found throughout the body, both in the brain and in serum. However, only brain acetylcholinesterase (AChE) distribution is correlated with central cholinergic innervation. […] We have determined in vitro inhibition of acetylcholinesterase activity in rat striatum according to the method described below.
In Vitro Inhibition of Acetylcholinesterase Activity in Rat Striatum
The method described below was used in this invention for assaying anticholinesterase activity. This is a modification of the method of Ellman et al., Biochem. Pharmacol. 7, 88 (1961).
1. 0.05M Phosphate buffer, pH 7.2
(c) add (a) to (b) until pH reaches 7.2
4. A 2 mM stock solution of the test drug is made up in a suitable solvent and brought to volume with 0.5 mM DTNB (reagent 3). Drugs are serially diluted (1:10) such that the final concentration (in cuvette) is 10^-4 M and screened for activity. If active, IC50 values are determined from the inhibitory activity of subsequent concentrations.
Enzyme activity is measured with the Beckman DU-50 spectrophotometer. This method can be used for IC50 determinations and for measuring kinetic constants.
Reagents are added to the blank and sample cuvettes as follows:
This program also calculates the rate of absorbance change for each cuvette.
Substrate concentration is 10 mM diluted 1:2 in assay yielding final concentration of 5 mM.
IC50 values are calculated from log-probit analysis.

SMILES | IC50
CNC(=O)Oc1cccc2cc(C3CCN(C)CC3)oc12 [2-(1-METHYL-4-PIPERIDINYL)-BENZOFURAN-7-YL METHYL CARBAMATE] | 1.8 µM
CN(C)C(=O)Oc1cccc2cc(C3CCNCC3)oc12 [2-(4-PIPERIDINYL)BENZOFURAN-7-YL DIMETHYL CARBAMATE HEMIFUMARATE] | 1.9 µM
CNC(=O)Oc1cccc2cc(-c3ccncc3)oc12 [2-(4-PYRIDINYL)BENZOFURAN-7-YL METHYL CARBAMATE] | 1.2 µM
